Source: ChEMBL document CHEMBL1150868, “Verbenachalcone, a novel dimeric dihydrochalcone with potentiating activity on nerve growth factor-action from Verbena littoralis” (J Nat Prod, 2001)
The source made the active and inactive calls. No cut-off for these calls is given here.

Key:
PC-12 [1] = assay: Enhancement of nerve growth factor-stimulated neurite outgrowth in rat PC12D cells at > 10 uM by microscopy; assay type: functional, cell-based
PC-12 [2] = assay: Induction of neurite outgrowth in rat PC12D cells at 1 to 30 uM in absence of nerve growth factor by microscopy; assay type: functional, cell-based

With COc1cc(CCC(=O)c2ccc(O)cc2O)ccc1Oc1cc(CCC(=O)c2ccc(O)cc2O)ccc1O the Activity (PC-12 [1]) was “Active” and the Activity (PC-12 [2]) was “inactive”.
